The values below come from patent US9975878B2, “Substituted triazine BMI-1 inhibitors” (PTC Therapeutics, Inc., priority 2013, dated 2018).

Data set [1] deals with Bmi-1 protein. The experiment in a line: Sandwich ELISA Assay: Bmi-1 protein level in HT-1080 cells treated with test compounds. It counts as cell-based. The gist of the method: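 HT-1080 cells exposed to compounds (final DMSO 0.5%) for 40-48 h at 37° C, 5% CO2, then lysed. Bmi-1 quantified by sandwich ELISA (mouse anti-Bmi-1 capture, rabbit anti-Bmi-1 detection, HRP anti-rabbit, TMB), read at OD450 with OD570 reference, against recombinant GST-Bmi-1 standard curve (0-8000 pg/mL).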

Structures are written as SMILES.

The compound `Nc1nc(Nc2ccc(OC(F)F)nc2)nc(-n2c(C3CC3)nc3c(F)cc(F)cc32)n1` [Cpd 91, 6-(2-cyclopropyl-4,6-difluoro-1H-benzimidazol-1-yl)-N-[6-(difluoromethoxy)pyridin-3-yl]-1,3,5-triazine-2,4-diamine] registered a melting point of 128 to 130 °C. The 50% effective concentration (EC50) in data set [1] lay within 10 to 100 nM.

For `Nc1nc(Nc2ccc(OC(F)F)c(F)c2)nc(-n2c(C(F)F)nc3ccccc32)n1` [Cpd 104, N-[4-(difluoromethoxy)-3-fluorophenyl]-6-[2-(difluoromethyl)-1H-benzimidazol-1-yl]-1,3,5-triazine-2,4-diamine], the melting point was 201 to 203 °C. The same compound gave a concentration giving a half-maximal response (EC50) in data set [1] of 10 to 100 nM.

`Nc1nc(Nc2ccc(OC(F)F)c(F)c2)nc(-n2c(CF)nc3ccccc32)n1` [Cpd 109, N-[4-(difluoromethoxy)-3-fluorophenyl]-6-[2-(fluoromethyl)-1H-benzimidazol-1-yl]-1,3,5-triazine-2,4-diamine] registered a melting point of 166 to 168 °C. This compound also gave an EC50 in data set [1] of 10 to 100 nM.

For the compound `Nc1nc(Nc2ccc(OC(F)(F)F)cc2)nc(-n2c(C3CC3)nc3c(F)cc(F)cc32)n1` [Cpd 92, 6-(2-cyclopropyl-4,6-difluoro-1H-benzimidazol-1-yl)-N-[4-(trifluoromethoxy)phenyl]-1,3,5-triazine-2,4-diamine], the melting point is 213 to 215 °C. The compound further displayed an EC50 in data set [1] of 100 to 3000 nM.

For `Nc1nc(Nc2ccc(OC(F)F)cc2)nc(-n2c(C(F)F)nc3ccccc32)n1` [Cpd 103, N-[4-(difluoromethoxy)phenyl]-6-[2-(difluoromethyl)-1H-benzimidazol-1-yl]-1,3,5-triazine-2,4-diamine], the melting point lay in the range of 197 to 199 °C. Also, the EC50 in data set [1] is 10 to 100 nM.

On to `Nc1nc(Nc2ccc(C(F)(F)F)cc2)nc(-n2c(C(F)F)nc3ccccc32)n1` [Cpd 102, 6-[2-(difluoromethyl)-1H-benzimidazol-1-yl]-N-[4-(trifluoromethyl)phenyl]-1,3,5-triazine-2,4-diamine], for which the melting point was in the range of 197 to 199 °C. The EC50 in data set [1] was in the range of 10 to 100 nM.

Compound `Nc1nc(Nc2ccc(OC(F)F)c(F)c2)nc(-n2c(C3CC3)nc3c(F)cc(F)cc32)n1` [Cpd 90, 6-(2-cyclopropyl-4,6-difluoro-1H-benzimidazol-1-yl)-N-[4-(difluoromethoxy)-3-fluorophenyl]-1,3,5-triazine-2,4-diamine] came in with a melting point of 196 to 198 °C. In data set [1], this compound showed an EC50 of 10 to 100 nM.

In the case of `Nc1nc(Nc2ccc(OC(F)F)cc2)nc(-n2c(C3CC3)nc3c(F)cc(F)cc32)n1` [Cpd 89, 6-(2-cyclopropyl-4,6-difluoro-1H-benzimidazol-1-yl)-N-[4-(difluoromethoxy)phenyl]-1,3,5-triazine-2,4-diamine], the melting point fell in the range of 181 to 183 °C. In data set [1], this compound returned an EC50 of 10 to 100 nM.

For `Nc1nc(Nc2ccc(OC(F)F)cc2)nc(-n2c(CF)nc3ccccc32)n1` [Cpd 108, N-[4-(difluoromethoxy)phenyl]-6-[2-(fluoromethyl)-1H-benzimidazol-1-yl]-1,3,5-triazine-2,4-diamine], the melting point was in the range of 166 to 168 °C. The compound further came in with an EC50 in data set [1] of 10 to 100 nM.

`Cc1nc2ccccc2n1-c1nc(N)nc(Nc2ccc(OC(F)F)c(F)c2)n1` [Cpd 6, N-[4-(difluoromethoxy)-3-fluorophenyl]-6-(2-methyl-1H-benzimidazol-1-yl)-1,3,5-triazine-2,4-diamine] returned an EC50 in data set [1] of 10 to 100 nM.

Consider `Cc1nc2c(F)cc(F)cc2n1-c1nc(N)nc(Nc2ccc(Br)cc2)n1` [Cpd 208, N-(4-bromophenyl)-6-(4,6-difluoro-2-methyl-1H-benzimidazol-1-yl)-1,3,5-triazine-2,4-diamine], for which, in data set [1], the EC50 was 10 to 100 nM.

As for `Cc1nc2ccccc2n1-c1nc(N)nc(Nc2ccc(Cl)c(F)c2)n1` [Cpd 197, N-(4-chloro-3-fluorophenyl)-6-(2-methyl-1H-benzimidazol-1-yl)-1,3,5-triazine-2,4-diamine], the EC50 in data set [1] was 100 to 3000 nM.

With `CCc1nc2ccc(F)cc2n1-c1nc(N)nc(Nc2ccc(C)cc2)n1` [Cpd 169, 6-(2-ethyl-6-fluoro-1H-benzimidazol-1-yl)-N-(4-methylphenyl)-1,3,5-triazine-2,4-diamine], the EC50 in data set [1] lay in the range of 1 to 10 nM.

In data set [1], `Cc1nc2ccccc2n1-c1nc(N)nc(Nc2ccc(C(F)(F)F)nc2)n1` [Cpd 51, 6-(2-methyl-1H-benzimidazol-1-yl)-N-[6-(trifluoromethyl)pyridin-3-yl]-1,3,5-triazine-2,4-diamine] displayed an EC50 of 10 to 100 nM.

For the compound `Cc1nc2c(F)cc(F)cc2n1-c1nc(N)nc(Nc2ccc(OC(F)F)cc2)n1` [Cpd 47, N-[4-(difluoromethoxy)phenyl]-6-(4,6-difluoro-2-methyl-1H-benzimidazol-1-yl)-1,3,5-triazine-2,4-diamine], in data set [1], the EC50 lay within 10 to 100 nM.

With `Cc1nc2cc(Cl)ccc2n1-c1nc(N)nc(Nc2ccc(C(F)(F)F)cc2)n1` [Cpd 74, 6-(5-chloro-2-methyl-1H-benzimidazol-1-yl)-N-[4-(trifluoromethyl)phenyl]-1,3,5-triazine-2,4-diamine], the EC50 in data set [1] was 100 to 3000 nM.

In turn, `Nc1nc(Nc2ccc(C(F)(F)F)nc2)nc(-n2c(CF)nc3ccccc32)n1` [Cpd 111, 6-[2-(fluoromethyl)-1H-benzimidazol-1-yl]-N-[6-(trifluoromethyl)pyridin-3-yl]-1,3,5-triazine-2,4-diamine] gave a melting point of 178 to 180 °C. In addition, the EC50 in data set [1] lay within 100 to 3000 nM.

With `Cc1ccc(Nc2nc(N)nc(-n3c(C)nc4c(F)cccc43)n2)cc1` [Cpd 180, 6-(4-fluoro-2-methyl-1H-benzimidazol-1-yl)-N-(4-methylphenyl)-1,3,5-triazine-2,4-diamine], the EC50 in data set [1] lay in the range of 1 to 10 nM.

In the case of `Nc1nc(Nc2ccc(OC(F)F)cc2)nc(-n2c(C3CC3)nc3c(F)cccc32)n1` [Cpd 86, 6-(2-cyclopropyl-4-fluoro-1H-benzimidazol-1-yl)-N-[4-(difluoromethoxy)phenyl]-1,3,5-triazine-2,4-diamine], in data set [1], the EC50 was in the range of 10 to 100 nM.

Regarding `Nc1nc(Nc2ccc(C(F)(F)F)cc2)nc(-n2c(C(F)F)nc3cc(F)c(F)cc32)n1` [Cpd 114, 6-[2-(difluoromethyl)-5,6-difluoro-1H-benzimidazol-1-yl]-N-[4-(trifluoromethyl)phenyl]-1,3,5-triazine-2,4-diamine], the EC50 in data set [1] was 100 to 3000 nM.

For `Nc1nc(Nc2ccc(OC(F)F)cc2)nc(-n2c(C3CC3)nc3ccc(F)cc32)n1` [Cpd 63, 6-(2-cyclopropyl-6-fluoro-1H-benzimidazol-1-yl)-N-[4-(difluoromethoxy)phenyl]-1,3,5-triazine-2,4-diamine], the EC50 in data set [1] was in the range of 10 to 100 nM.

Consider `Fc1ccc2nc(C3CC3)n(-c3nncc(Nc4ccc(C(F)(F)F)cc4)n3)c2c1` [Cpd 132, 3-(2-cyclopropyl-6-fluoro-1H-benzimidazol-1-yl)-N-[4-(trifluoromethyl)phenyl]-1,2,4-triazin-5-amine], for which the EC50 in data set [1] lay within 10 to 100 nM.

In data set [1], `Fc1ccc2nc(C3CC3)n(-c3cnnc(Nc4ccc(OC(F)F)cc4)n3)c2c1` [Cpd 138, 5-(2-cyclopropyl-6-fluoro-1H-benzimidazol-1-yl)-N-[4-(difluoromethoxy)phenyl]-1,2,4-triazin-3-amine] showed an EC50 of 100 to 3000 nM.

Take `Nc1nc(Nc2ccc(OC(F)(F)F)cc2)nc(-n2c(C(F)F)nc3ccccc32)n1` [Cpd 106, 6-[2-(difluoromethyl)-1H-benzimidazol-1-yl]-N-[4-(trifluoromethoxy)phenyl]-1,3,5-triazine-2,4-diamine]: the melting point was 138 to 139 °C. In data set [1], this compound returned an EC50 of 10 to 100 nM.

Turning to `Cc1nc2cc(F)ccc2n1-c1nc(N)nc(Nc2ccc(C(F)(F)F)nc2)n1` [Cpd 52, 6-(5-fluoro-2-methyl-1H-benzimidazol-1-yl)-N-[6-(trifluoromethyl)pyridin-3-yl]-1,3,5-triazine-2,4-diamine], the EC50 in data set [1] lay within 100 to 3000 nM.

Compound `Cc1nc2ncc(Br)cc2n1-c1nc(N)nc(Nc2ccc(OC(F)F)c(F)c2)n1` [Cpd 39, 6-(6-bromo-2-methyl-1H-imidazo[4,5-b]pyridin-1-yl)-N-[4-(difluoromethoxy)-3-fluorophenyl]-1,3,5-triazine-2,4-diamine] had an EC50 in data set [1] of 10 to 100 nM.

`COc1ccc(Nc2nc(N)nc(-n3c(C)nc4cc(F)c(F)cc43)n2)cc1` [Cpd 194, 6-(5,6-difluoro-2-methyl-1H-benzimidazol-1-yl)-N-(4-methoxyphenyl)-1,3,5-triazine-2,4-diamine]: the concentration for a half-maximal effect (EC50) in data set [1] is 1 to 10 nM.

`Cc1nc2ccccc2n1-c1nc(N)nc(Nc2cccc(OC(F)F)c2)n1` [Cpd 93, N-[3-(difluoromethoxy)phenyl]-6-(2-methyl-1H-benzimidazol-1-yl)-1,3,5-triazine-2,4-diamine] returned an EC50 in data set [1] of 100 to 3000 nM.

`Nc1nc(Nc2ccc(OC(F)F)cc2)nc(-n2c(C3CC3)nc3cc(F)ccc32)n1` [Cpd 66, 6-(2-cyclopropyl-5-fluoro-1H-benzimidazol-1-yl)-N-[4-(difluoromethoxy)phenyl]-1,3,5-triazine-2,4-diamine] yielded an EC50 in data set [1] of 10 to 100 nM.

In data set [1], `Nc1nc(Nc2ccc(C(F)(F)F)cc2)nc(-n2c(C3CC3)nc3c(F)cccc32)n1` [Cpd 85, 6-(2-cyclopropyl-4-fluoro-1H-benzimidazol-1-yl)-N-[4-(trifluoromethyl)phenyl]-1,3,5-triazine-2,4-diamine] came in with an EC50 of 10 to 100 nM.
